According to patent publication US20220144853A1, “IMIDAZOLINE DERIVATIVES AS CXCR4 MODULATORS” (Université de Paris, priority 2019, published 2022):
Counter-ions that a name gives are not always drawn.

What was measured:
[1] = test system: TNFα production by monocytes (CD14+ cells); test: TNFα production by monocytes from juvenile dermatomyositis patients, intracellular staining by flow cytometry; type: cell-based, human; conditions: PBMCs from 2 juvenile dermatomyositis patients; R848 overnight; FIG. 3
Experimental: (§1) Material from Juvenile Dermatomyositis and Lupus patients were obtained from Necker Hospital, Paris, France or from Imagine Institute, Paris, France. The study was approved by the Conité des Protection des Personnes (ID-RCB/EUDRACT: 2014-A01017-40 and 2018-A01358-47) in France.
(§2) In vitro experiments were performed using human peripheral blood mononuclear cells (PBMCs) isolated by density centrifugation from peripheral blood leukocyte separation medium (Cambrex, Gaithersburg, Md.).
(§3) 1) The PBMCs used herein were prepared as described in part A “immune cells preparation”, section 1) above. PBMCs were seeded at 2.10^6/mL. […] Cells were then stimulated with the TLR7/8 agonist resiquimod—R848 (Invivogen) at 5 μg/mL. When stated, AMD (20 μM) (Sigma-Aldrich, MO, USA) was added to the cells 1 h before incubation with example 1.
R848-stimulated PBMCs were washed in PBS and then incubated with a viability stain (Zombie-Aqua, Biolegend) for 30 min at 4° C. After washing, the cells were resuspended in PBS containing 2% FCS and 2 mM EDTA and stained with the extracellular mix using APC-anti-BDCA4 (clone 12C2), FITC-anti-CD123 (clone 6H6), PerCP.cy5.5-anti-CD56 (clone 5.1H11), BV421-anti-HLADR (clone L243), PE.cy7-anti-CD19 (clone 4G7), APC-cy.7-anti-CD14 (clone M5E2) all from Biolegend and used at 1/200 and V500-anti-CD3 (BD Bioscience, clone SP34-2, 1/200). […]

[2] = target: T1, human CXCR4 (hCXCR4) receptor (Homo sapiens, UniProt P61073); test: BRET assay of antagonist activity on the CXCR4-CXCL12 signaling pathway in transfected HEK-293 T cells; type: cell-based; conditions: Gαi1, Gαi2, Gαi3, GαoB or Gαz, EC80 CXCL12, FIG. 6
T1 construct: expressed in transfected cells; host or cells: HEK-293 T cells, transient co-transfection with polyethylenimine
Experimental: Examples of the present invention were tested for their antagonist activity on human CXCR4 (hCXCR4) receptor transiently over-expressed in HEK-293 T cells. Compounds exert antagonist activity if they decrease the action of CXCL12 on the receptor.
HEK-293 T cells are maintained in Dulbecco's Modified Eagle's Medium supplemented with 10% Foetal Calf Serum, 1% Penicillin/Streptomycin at 37° C./5% CO2. […] After transfection, cells are cultured for 48 h at 37° C./5% CO2.
On the day of the assay, cells are detached using trypsin 0.05%, resuspended in assay buffer (1.8 mM CaCl2, 1 mM MgCl2, 2.7 mM KCl, 137 mM NaCl, 0.4 mM NaH2PO4, 5.5 mM D-Glucose, 11.9 mM NaHCO3, 25 mM Hepes) and seeded in 384 well plate at a density of 20,000 cells per well.
Cells are first incubated for 10 minutes with the compound alone. Then, cells are stimulated by an EC80 CXCL12 concentration for additional 10 minutes and luminescence is recorded. […] Antagonist activity is evaluated in comparison to basal signals evoked by EC80 CXCL12 alone.
For IC50 determination, a dose-response test is performed using 20 concentrations (ranging over 6 logs) of each compound. Dose-response curves are fitted using the sigmoidal dose-response (variable slope) analysis in GraphPad Prism software (GraphPad Software) and IC50 of antagonist activity is calculated. […]

[3] = test system: IFN production by activated immune cells (PBMC) from lupus patients; test: IFN production by R848-activated PBMC from lupus patients, STING-37 reporter cell line; type: cell-based, human; conditions: 10 μM, PBMC from three SLE patients, FIG. 2
Experimental: as §1, §2
(§4) PBMCs were cultured in RPMI 1640 (Invitrogen, Gaithersburg, Md.) (R10) containing 10% heat-inactivated fetal bovine serum, 100 U/mL Penicilium and 100 μg/mL Streptomycin (1% Pen-Strep) and 1 mM glutamine (Hyclone, Logan, Utah).
1) The PBMCs used herein were prepared as described in part A “immune cells preparation”, section 1) above. PBMCs were seeded at 2.10^6/mL. […] Cells were then stimulated with the TLR7/8 agonist resiquimod—R848 (Invivogen) at 5 μg/mL. […]
(§5) 1) To quantify the secretion of functional IFN, a biological assay based on a stable cell line where luciferase reporter gene is controlled by five Interferon-Stimulated Response Elements (STING37 cell line) was used. […] After 24 h of culture, luciferase activity was determined by adding 50 μL of Bright-Glo reagents (Promega) to culture wells and measuring bioluminescence with a luminometer.

[4] = test system: TNFα production by monocytes (CD14+ cells); test: Requirement of CXCR4 (siRNA knockdown or AMD3100) for the effect on TNFα production by monocytes from healthy donors; type: cell-based, human
Experimental: Monocytes were purified from PBMCs by positive selection with the CD14 microbeads (Miltenyi Biotec) and MACS column.
as §3
Isolated monocytes were seeded at 10^5 cells/100 μL in 96-well plates and incubated at 37° C. Cyclophilin B (control) and CXCR4 small interfering RNA (siRNA) (Smart Pool, Dharmarcon) was diluted in DOTAP (Roche Applied Sciences). The mix was gently mixed and incubated at room temperature for 15 minutes. After incubation, the mix was added to cells in culture at a final concentration of 160 nM. Finally, cells were incubated at 37° C. for 24 hours before stimulation.
R848-stimulated PBMCs were washed in PBS and then incubated with a viability stain (Zombie-Aqua, Biolegend) for 30 min at 4° C. After washing, the cells were resuspended in PBS containing 2% FCS and 2 mM EDTA and stained with the extracellular mix using APC-anti-BDCA4 (clone 12C2), FITC-anti-CD123 (clone 6H6), PerCP.cy5.5-anti-CD56 (clone 5.1H11), BV421-anti-HLADR (clone L243), PE.cy7-anti-CD19 (clone 4G7), APC-cy.7-anti-CD14 (clone M5E2) all from Biolegend and used at 1/200 and V500-anti-CD3 (BD Bioscience, clone SP34-2, 1/200). For the TNFα intracellular staining a Fixation/Permeabilization Solution Kit (BD Cytofix/Cytoperm) was used according to the manufacturer's protocol. Briefly, the cells were fixed for 10 min at 4° C. with 100 μL of the Fixation/Permeabilization solution then washed and stained in 100 μL of the BD Perm/Wash Buffer containing TNFα-APC (Miltenyi, 1/500) antibody for 1 h at 4° C. Data acquisition was performed on a Canto II flow cytometer using Diva software (BD Biosciences, San Jose, Calif.). FlowJo software (Treestar, Ashland, Oreg.) was used to analyze data.

[5] = test system: IFN production by activated immune cells (PBMC); test: IFN production by R848-activated PBMC from healthy donors, STING-37 reporter cell line; type: cell-based, human; conditions: different concentrations, R848, STING-37 reporter, FIG. 1
Experimental: 1) The blood from healthy donors was obtained from two sources. Either from “Etablissement Français du Sang” (convention #07/CABANEL/106), Paris, France or from the Apheresis and Blood Donation Unit at the Institute of Transfusion Medicine and Immunogenetics (IKT), Ulm, Germany after being approved by the Institutional Review Board at Ulm University.
as §2, §4
1) The PBMCs used herein were prepared as described in part A “immune cells preparation”, section 1) above. PBMCs were seeded at 2.10^6/mL. […]
as §5

IL-18 = test: Cytokine production by R848-activated PBMCs, LEGENDplex Human Inflammation panel 1: IL-18; type: cell-based; conditions: PBMCs from 2 healthy donors, R848 overnight
Experimental: (§6) 2) The PBMCs used herein were prepared as described in part A “immune cells preparation”, section 2) above. PBMCs were seeded at 4.10^6/mL. […] Cells were then stimulated with the TLR7/8 agonist resiquimod—R848 (Sigma-Aldrich, MO, USA) at 5 μg/mL.
(§7) Cytokine expression levels were assessed using LEGENDplex Human inflammation panel 1 Kit (BioLegend, California, USA), which is a bead-based multiplex assay, using fluorescence-encoded beads. […] First, supernatants of R848-stimulated PBMCs were harvested after 24 h of stimulation and frozen at −20° C. for storage. Supernatants were dispensed into a 96-well V-bottom plate. Protocol pursued as per manufacturer recommendations (Manual for BioLegend LEGENDplex, Multi-Analyte Flow Assay Kit, Human Inflammation Panel 1, version 750000393_R01).

IFN-γ = test: Cytokine production by R848-activated PBMCs, LEGENDplex Human Inflammation panel 1: IFN-γ; type: cell-based; conditions: PBMCs from 2 healthy donors, R848 overnight
Experimental: as §6, §7

IL-1β = test: Cytokine production by R848-activated PBMCs, LEGENDplex Human Inflammation panel 1: IL-1β; type: cell-based; conditions: PBMCs from 2 healthy donors, R848 overnight, read-out: IC50 (μM) 1L-1β
Experimental: as §6, §7

[6] = test system: IFN production by activated PBMCs; test: IFN production by R848-activated PBMCs from healthy donors, twINNE reporter cell line; type: cell-based, human; conditions: means of two results over 2 healthy donors, R848 5 μg/mL, IT1t: mean over all experiments, read-out: IC50 of anti-inflammatory activity (IFN production)
Method in brief: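 Human PBMCs (4.10^6/mL, RPMI/10% FBS, 37° C) stimulated with R848 at 5 μg/mL; supernatants collected after 24 h. Functional IFN measured on twINNE cells (ISRE-driven luciferase reporter) after 24 h culture by bioluminescence; IC50 from variable-slope dose-response fits.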

IL-23 = test: Cytokine production by R848-activated PBMCs, LEGENDplex Human Inflammation panel 1: IL-23; type: cell-based; conditions: PBMCs from 2 healthy donors, R848 overnight
Experimental: as §6, §7

IL-10 = test: Cytokine production by R848-activated PBMCs, LEGENDplex Human Inflammation panel 1: IL-10; type: cell-based; conditions: PBMCs from 2 healthy donors, R848 overnight
Experimental: as §6, §7

[7] = test system: MCP-1, IL-6, IL-8 and IL-33; test: Cytokine production by R848-activated PBMCs, LEGENDplex: other inflammatory cytokines; type: cell-based, human; conditions: PBMCs from two healthy donors; R848 5 μg/mL
Experimental: as §6, §7

TNF-α = test: Cytokine production by R848-activated PBMCs, LEGENDplex Human Inflammation panel 1: TNF-α; type: cell-based; conditions: PBMCs from 2 healthy donors, R848 overnight
Experimental: as §6, §7

IL-12p70 = test: Cytokine production by R848-activated PBMCs, LEGENDplex Human Inflammation panel 1: IL-12p70; type: cell-based; conditions: PBMCs from 2 healthy donors, R848 overnight
Experimental: as §6, §7

T1 sequence (P61073 whole entry): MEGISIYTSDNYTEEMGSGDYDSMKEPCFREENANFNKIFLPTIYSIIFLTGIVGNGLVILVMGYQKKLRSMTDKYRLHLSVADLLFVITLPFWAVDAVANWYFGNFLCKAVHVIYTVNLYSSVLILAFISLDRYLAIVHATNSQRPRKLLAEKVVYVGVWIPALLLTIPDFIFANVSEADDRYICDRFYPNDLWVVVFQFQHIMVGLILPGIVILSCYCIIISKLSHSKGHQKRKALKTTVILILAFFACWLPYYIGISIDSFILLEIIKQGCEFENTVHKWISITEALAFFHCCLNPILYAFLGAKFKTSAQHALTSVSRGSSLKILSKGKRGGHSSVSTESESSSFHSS

| antagonist activity: recruitment of G proteins induced by the hCXCR4-CXCL12 interaction [2] | SMILES | TNF-α production in CD14+ monocytes [1] | IFN production by activated PBMCs [3] | TNFα production by activated monocytes in the presence of the example after pre-incubation with AMD3100 ([4]; AMD3100 20 μM 1 h, example 1 5 μM or example 2 1 μM, R848, FIG. 5B) | TNFα production by activated monocytes in the presence of the example after CXCR4 siRNA ([4]; siCXCR4 160 nM 24 h, example 1 5 μM, R848, FIG. 5A) | reduction of IFN production by activated PBMCs [5] [%] | IC50 (IL-18) [µM] | IC50 (IFN-γ) [µM] | IC50 (IL-1β) [µM] | IC50 [6] [µM] | IC50 (IL-23) [µM] | IC50 (IL-10) [µM] | inhibition on other inflammatory cytokines such as MCP-1, IL-6, IL-8 and IL-33 [7] | IC50 (TNF-α) [µM] | IC50 (IL-12p70) [µM] |
| --- | --- | --- | --- | --- | --- | --- | --- | --- | --- | --- | --- | --- | --- | --- | --- |
| significantly lower than IT1t | CC1(C)CN2C(CSC3=NC4CCCCC4N3)=CSC2=N1 (stereo not drawn) [Example 1, 3-(((3a,4,5,6,7,7a-hexahydro-1H-benzo[d]imidazol-2-yl)thio)methyl)-6,6-dimethyl-5,6-dihydroimidazo[2,1-b]thiazole dihydrochloride] | strongly inhibited | level similar to the one of unstimulated negative controls | restored | restored | 100 |  |  |  |  |  |  |  |  |  |
|  | CC1(C)CN2C(CSC(=NC3CCCCC3)NC3CCCCC3)=CSC2=N1 [IT1t, reference compound] |  |  |  |  |  | 9.7 | 24 | 38 | 31 | 14 | 20 | no or poor inhibition | 48 | 16 |
